The source of these data is US20060111556A1, “Preventives/remedies for neurodegenerative diseases” (priority 2002, published 2006).

Test [1] concerns neuronal cell death inducible putative kinase (NIPK) gene. Description: NIPK gene expression analysis by oligonucleotide microarray after endoplasmic reticulum stress. Format: cell-based. Conditions: rat primary nerve cells, medial expression level taken as 1. How it is done:
Rat primary nerve cells prepared from CD rat (Charles River Japan, Inc.) of TP-17 were suspended in B27-supplemented Neurobasal medium (NB medium: GIBCO) charged in a type I collagen-coated 24-well plate and then plated at 250,000 cells/well, followed by culturing for 3 days.
(i) Tunicamycin (Tnc) was added to the culture cells above in a final concentration of 100 nM, (ii) thapsigargin (Thap) was added to the culture cells above in a final concentration of 2 nM, or (iii) the culture cells described above were cultured in glucose-free B27-suplemented DMEM medium with 2 medium changes and then 2-deoxyglucose (2DG) was added in 3 mM. The total RNA was extracted from the cells 4, 8 and 24 hours, respectively, in accordance with the operating manual using RNeasy Mini kit (Qiagen). Cells added to the respective media (drug-free cells) in place of the drugs above (Tnc, Thap and 2DG) were used for control. Using the oligonucleotide microarray (Rat Genome U34A; Affymetrix Corp.), gene expression analysis was conducted on these materials.
The experimental method was carried out in accordance with the expression analysis technical manual of Affymetrix Corp. Gene expression profiles were compared between the cells stimulated with each drug and the cells with no drug. […] (TABLE 1).

The subject of test [2] is NIPK gene. Description: NIPK gene expression analysis by oligonucleotide microarray after β amyloid stimulation. Format: cell-based. The note with it: rat primary nerve cells, β amyloid 25 μM, 24 hours after stimulation, medial expression level taken as 1. How it is done:
In order to examine if […] stimulation would affect the expression of NIPK gene with enhanced expression by endoplasmic reticulum stress, gene expression analysis was performed as in EXAMPLE 1, using cells stimulated with β amyloid.
Rat primary nerve cells prepared as in EXAMPLE 1 were suspended in N2-supplemented DMEM medium (GIBCO) and then plated at 250,000 cells/well, followed by incubation for 4 days. After the incubation, β amyloid suspended in the medium above in a final concentration of 25 μM was added to the medium. As in EXAMPLE 1, the total RNA was extracted from the cells 4, 8 and 24 hours after the addition and provided for gene analysis. For control, the cells to which the medium described above was added instead of β amyloid were used. Expression of NIPK was more enhanced in the cells stimulated with β, when compared to control (TABLE 2).

Test [3] has as its target T1, Akt1 (Homo sapiens, UniProt P31749).
T1 construct: expressed in transfected cells; host or cells: COS7 cells
Description: Immunoprecipitation with anti-V5 antibody and western blotting with anti-Akt1 antibody. Format: binding. Conditions: V5-tagged NIPK and Akt1 co-expressed in COS7 cells; control GFP and Akt1. How it is done:
Using human NIPK cloned into pCDNA3.1-/V5-His TOPO (Invitrogen) vector (EXAMPLE 3) as a template, PCR was carried out with synthetic primers (SEQ ID NO: 3 and SEQ ID NO: 23) and Pfu turbo (Stratagene) as an enzyme under the conditions (1)-(3) to obtain the specific PCR product. • (1) 94° C. for 5 minutes • (2) 94° C. for 30 seconds—60° C. for 30 seconds—72° C. for 1 minute, 25 time • (3) 72° C. for 5 minutes
The PCR product obtained was cloned into pCDNA3.1-/V5-His TOPO (Invitrogen) to transfect Escherichia coli DH5α. The resulting colony was cultured in LB medium to recover V5-tagged human NIPK gene expression vector.
Akt1 gene expression vector was prepared by the following procedures. Using Quick-clone human whole brain cDNA (Clontech) as a template, PCR was carried out with synthetic primers (SEQ ID NO: 24 and SEQ ID NO: 25) and Pfu turbo (Stratagene) as an enzyme under the conditions (1)-(3) below to obtain the specific PCR product. • (1) 94° C. for 5 minutes • (2) 94° C. for 30 seconds—58° C. for 30 seconds—72° C. for 2 minutes, 35 times • (3) 72° C. for 5 minutes […]
On the technique in general: A western blot detects proteins with antibodies after separation by electrophoresis.

T1 sequence (P31749 whole entry): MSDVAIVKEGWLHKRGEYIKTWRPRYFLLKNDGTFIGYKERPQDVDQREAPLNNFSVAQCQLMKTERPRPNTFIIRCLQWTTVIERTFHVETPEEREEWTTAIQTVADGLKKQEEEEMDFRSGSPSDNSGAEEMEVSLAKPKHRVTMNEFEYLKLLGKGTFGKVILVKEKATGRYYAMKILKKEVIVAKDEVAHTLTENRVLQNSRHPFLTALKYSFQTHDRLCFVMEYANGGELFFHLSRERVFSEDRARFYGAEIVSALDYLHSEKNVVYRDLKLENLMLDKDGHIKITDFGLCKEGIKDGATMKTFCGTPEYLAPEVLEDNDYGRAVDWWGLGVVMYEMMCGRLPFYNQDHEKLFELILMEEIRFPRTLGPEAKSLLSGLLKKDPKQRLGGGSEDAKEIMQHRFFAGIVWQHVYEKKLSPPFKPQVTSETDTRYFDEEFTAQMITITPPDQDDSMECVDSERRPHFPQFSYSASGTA

Turning to `O=CC[C@@H](O)[C@H](O)[C@H](O)CO` [2DG, 2-deoxyglucose], the “Gene Expression Level” value in test [1] (glucose-free medium, 2-deoxyglucose 3 mM, 4 hours after addition) is listed as 0.72; in test [1] (glucose-free medium, 2-deoxyglucose 3 mM, 8 hours after addition), 1.79; in test [1] (glucose-free medium, 2-deoxyglucose 3 mM, 24 hours after addition) it was 2.45.

As to `C/C=C(/C)C(=O)O[C@H]1C(C)=C2[C@H]([C@@H]1OC(=O)CCCCCCC)[C@@](C)(OC(C)=O)C[C@H](OC(=O)CCC)[C@@]1(O)[C@H]2OC(=O)[C@@]1(C)O` [Thap, thapsigargin], the “Gene Expression Level” value is reported as 0.93 in test [1] (thapsigargin 2 nM, 4 hours after stimulation); 2.70 in test [1] (thapsigargin 2 nM, 8 hours after stimulation); 1.64 in test [1] (thapsigargin 2 nM, 24 hours after stimulation).

Regarding Tunicamycin [Tnc], the “Gene Expression Level” value in test [1] (tunicamycin 100 nM, 4 hours after stimulation) was 0.41; in test [1] (tunicamycin 100 nM, 8 hours after stimulation), 1.64; in test [1] (tunicamycin 100 nM, 24 hours after stimulation), 1.32.

Take β amyloid: the “Gene Expression Level” value in test [2] was determined as 0.34.

B1: NIPK: human neuronal cell death inducible putative kinase, amino acid sequence SEQ ID NO: 1; V5-tagged, expressed in COS7 cells (protein)
chain: MRATPLAAPAGSLSRKKRLELDDNLDTERPVQKRARSGPQPRLPPCLLPLSPPTAPDRATAVATASRLGPYVLLEPEEGGRAYQALHCPTGTEYTCKVYPVQEALAVLEPYARLPPHKHVARPTEVLAGTQLLYAFFTRTHGDMHSLVRSRHRIPEPEAAVLFRQMATALAHCHQHGLVLRDLKLCRFVFADRERKKLVLENLEDSCVLTGPDDSLWDKHACPAYVGPEILSSRASYSGKAADVWSLGVALFTMLAGHYPFQDSEPVLLFGKIRRGAYALPAGLSAPARCLVRCLLRREPAERLTATGILLHPWLRQDPMPLAPTRSHLWEAAQVVPDGLGLDEAREEEGDREVVLYG
modifications: V5 tag; Homo sapience
notes: V5-tagged, expressed in COS7 cells
Consider B1, for which the “binding to Akt1 within the cells” value in test [3] is reported as “bound to Akt1”.
